Results published in patent US12187709B2 (Genentech, Inc., priority 2021, dated 2025).

Columns and labels:
[1] = target: Human Cbl-b (residues 40-426) (Homo sapiens (Human), UniProt Q13191); test: Cbl-b SPR assay; format: binding; settings: for Fold of selectivity: C-cbl SPR Kd vs Cbl-b SPR Kd; for Kd: SPR, 20° C.
Summary of the method: (§1)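 Values derive from a 1:1 model fitted to multicycle kinetics on captured protein (1300-1500 RU), using six 2-fold concentrations, 60 s contact and dissociation of 120-1200 s. In the chaser format, kd comes from a single-exponential fit of % site occupancy over time.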

[2] = target: c-Cbl (Homo sapiens (Human), UniProt P22681); test: C-Cbl LCK Ub TR-FRET assay (C-cbl Lck HTRF); format: biochemical
Chain of c-Cbl (P22681 47-435): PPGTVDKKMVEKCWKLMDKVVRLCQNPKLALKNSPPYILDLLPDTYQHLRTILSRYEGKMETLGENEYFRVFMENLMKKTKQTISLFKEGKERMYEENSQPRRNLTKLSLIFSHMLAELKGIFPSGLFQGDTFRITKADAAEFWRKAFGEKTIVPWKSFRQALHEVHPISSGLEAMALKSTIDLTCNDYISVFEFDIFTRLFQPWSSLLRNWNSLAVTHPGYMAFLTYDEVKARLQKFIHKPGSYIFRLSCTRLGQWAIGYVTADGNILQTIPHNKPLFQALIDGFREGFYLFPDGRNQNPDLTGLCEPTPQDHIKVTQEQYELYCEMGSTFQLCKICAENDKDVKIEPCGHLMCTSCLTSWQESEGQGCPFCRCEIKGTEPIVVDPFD
Summary of the method: (§2)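 Detection reagents added, brief spin, 20 min RT. IC50 fit normalized to no-LCK (low) and DMSO (high) controls.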

[3] = target: c-Cbl (residues 47-435) (Homo sapiens (Human), UniProt P22681); test: c-Cbl SPR assay; format: binding; settings: 20° C.
Chain of c-Cbl (residues 47-435) (P22681 47-435): as above
Summary of the method: as §1

[4] = target: Cbl-b (Homo sapiens (Human), UniProt Q13191); test: Cbl-b LCK Ub TR-FRET assay (Cbl-b Lck HTRF); format: biochemical; settings: for IC50: Cbl-b LCK Ub TR-FRET; for fold-selectivity (Cbl-b over C-cbl) / (fold-selectivity) Cbl-b and C-Cbl Selectivity: ratio C-cbl Lck HTRF IC50 / Cbl-b Lck HTRF IC50
Chain of Cbl-b (Q13191 40-426): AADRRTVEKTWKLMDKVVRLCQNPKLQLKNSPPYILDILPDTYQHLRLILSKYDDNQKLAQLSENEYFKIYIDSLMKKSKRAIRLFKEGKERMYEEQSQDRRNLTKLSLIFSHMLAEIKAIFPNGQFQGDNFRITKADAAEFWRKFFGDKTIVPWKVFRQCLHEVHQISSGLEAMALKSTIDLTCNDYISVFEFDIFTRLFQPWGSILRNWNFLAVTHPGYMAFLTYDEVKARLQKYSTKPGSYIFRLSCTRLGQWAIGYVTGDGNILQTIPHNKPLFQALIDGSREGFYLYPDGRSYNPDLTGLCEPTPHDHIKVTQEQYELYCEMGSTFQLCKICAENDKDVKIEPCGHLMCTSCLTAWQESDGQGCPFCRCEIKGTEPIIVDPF
Summary of the method: as §2

Chain of Human Cbl-b (residues 40-426) (Q13191 40-426): as above

Row | Structure (SMILES) | Fold of selectivity [1] [×] | Kd [1] [nM] | IC50 [2] [nM] | Kd [3] [nM] | IC50 [4] [nM] | fold-selectivity (Cbl-b over C-cbl) [4] | IC50 ([4]; Example 121) [nM] | (fold-selectivity) Cbl-b and C-Cbl Selectivity [4] [x]
1 | Cn1cnnc1[C@]1(c2cccc(N3Cc4c(cc(CNC5(C)CCC5)cc4C(F)(F)F)C3=O)c2)C[C@@H](CF)C1 [Compound 101, 2-(3-((1r,3r)-3-(fluoromethyl)-1-(4-methyl-4H-1,2,4-triazol-3-yl)cyclobutyl)phenyl)-6-(((1-methylcyclobutyl)amino)methyl)-4-(trifluoromethyl)isoindolin-1-one] | 4.9 | 0.85 | 9.8 | 4.2 | 9.1 | 1.1x | – | –
2 | Cn1cnnc1[C@]1(c2cccc(N3Cc4c(Cl)cc(CNC5(C)CCC5)cc4C3=O)c2)C[C@H](F)C1 [Compound 246, 4-chloro-2-(3-((1s,3s)-3-fluoro-1-(4-methyl-4H-1,2,4-triazol-3-yl)cyclobutyl)phenyl)-6-(((1-methylcyclobutyl)amino)methyl)isoindolin-1-one] | 2.1 | 4.2 | 15 | 8.5 | 8.6 | 1.7x | – | –
3 | CO[C@H]1C[C@@H]([C@@H](c2cccc(N3Cc4c(cc(CN5CCN(C)C[C@@H]5C(C)C)cc4C(F)(F)F)C3=O)c2)c2nncn2C)C1 (single isomer, unassigned) [Compound 14] | 8.8 | 630 | 1000 | 5500 | 630 | (1.6x) | – | –
4 | C[C@H](NC1(C)CCC1)c1cc2c(c(C(F)F)c1)CN(c1cccc([C@@H](c3nncn3C)C3COC3)c1)C2=O (single isomer, unassigned) [Compound 407] | 16 | 270 | 5700 | 4300 | – | – | 390 | 14
5 | Cn1cnnc1C(F)(c1cccc(N2Cc3c(cc(CNC4(C)CCC4)cc3C(F)(F)F)C2=O)c1)C1COC1 (single isomer, unassigned) [Compound 150] | 8.5 | 2.9 | 13 | 28 | 9.1 | 1.4x | – | –
6 | Cn1cnnc1[C@]1(c2cccc(N3Cc4c(cc(CNC5(C)CCC5)cc4C(F)(F)F)C3=O)c2)C[C@@H](O)C1 [Compound 20, 2-(3-((1r,3r)-3-hydroxy-1-(4-methyl-4H-1,2,4-triazol-3-yl)cyclobutyl)phenyl)-6-(((1-methylcyclobutyl)amino)methyl)-4-(trifluoromethyl)isoindolin-1-one] | 4.4 | 80 | 390 | 350 | 170 | (2.3x) | – | –
7 | COCC1(NCc2cc3c(c(C(F)(F)F)c2)CN(c2cccc([C@]4(c5nncn5C)C[C@H](OC)C4)c2)C3=O)CCC1 [Compound 495, 2-(3-((1r,3r)-3-methoxy-1-(4-methyl-4H-1,2,4-triazol-3-yl)cyclobutyl)phenyl)-6-(((1-(methoxymethyl)cyclobutyl)amino)methyl)-4-(trifluoromethyl)isoindolin-1-one] | 12 | 8.5 | 110 | 110 | – | – | 18 | 6.7
8 | CO[C@H]1C[C@](c2cccc(N3Cc4c(cc(CNC5(C)CC5)cc4C(F)(F)F)C3=O)c2)(c2nncn2C)C1 [Compound 475, 2-(3-((1r,3r)-3-methoxy-1-(4-methyl-4H-1,2,4-triazol-3-yl)cyclobutyl)phenyl)-6-(((1-methylcyclopropyl)amino)methyl)-4-(trifluoromethyl)isoindolin-1-one] | 13 | 3.6 | 23 | 45 | – | – | 8.7 | 3.3
9 | Cn1cnnc1[C@H](c1cccc(N2Cc3c(cc(CNC4(C)CCC4)cc3C(F)F)C2=O)c1)C1CC(F)C1 (stereo partly drawn) [Compound 461, 4-(difluoromethyl)-2-(3-((S)-((1s,3R)-3-fluorocyclobutyl)(4-methyl-4H-1,2,4-triazol-3-yl)methyl)phenyl)-6-(((1-methylcyclobutyl)amino)methyl)isoindolin-1-one] | 18 | 190 | 3200 | 3400 | – | – | 360 | 8.8
10 | Cn1cnnc1[C@H](c1cccc(N2Cc3c(cc(CNC4(C)CCC4)cc3C(F)(F)F)C2=O)c1)C1CCOCC1.O=CO (single isomer, unassigned) [Compound 291, (S)-2-(3-((4-methyl-4H-1,2,4-triazol-3-yl)(tetrahydro-2H-pyran-4-yl)methyl)phenyl)-6-(((1-methylcyclobutyl)amino)methyl)-4-(trifluoromethyl)isoindolin-1-one formate] | – | 62 | 47 | 130 | 11 | – | – | –
11 | CC(=O)[C@H]1C[C@@](c2cccc(N3Cc4c(cc(CNC5(C)CCC5)cc4C(F)(F)F)C3=O)c2)(c2nncn2C)C1 [Compound 346, 2-(3-((1s,3s)-3-acetyl-1-(4-methyl-4H-1,2,4-triazol-3-yl)cyclobutyl)phenyl)-6-(((1-methylcyclobutyl)amino)methyl)-4-(trifluoromethyl)isoindolin-1-one] | 5.4 | 35 | 190 | 200 | 40 | 4.6x | – | –
12 | CO[C@H]1C[C@@](c2cccc(N3Cc4c(cc([C@H](C)NC5(C)CCC5)cc4C(F)(F)F)C3=O)c2)(c2nncn2C)C1 (single isomer, unassigned) [Compound 176] | 6.8 | 41 | 220 | 280 | 62 | 3.4x | – | –
13 | Cn1cnnc1C1(c2cccc(N3Cc4c(cc(CNC5(C)CCC5)cc4C(F)(F)F)C3=O)c2)CN(C2COC2)C1 [Compound 111, 2-(3-(3-(4-methyl-4H-1,2,4-triazol-3-yl)-1-(oxetan-3-yl)azetidin-3-yl)phenyl)-6-(((1-methylcyclobutyl)amino)methyl)-4-(trifluoromethyl)isoindolin-1-one] | 8.6 | 3600 | 20000 | 31000 | 4900 | 4.1x | – | –
14 | Cn1cnnc1[C@]1(c2cccc(N3Cc4c(cc(CNC5(C)CCC5)cc4C(F)(F)F)C3=O)c2)C[C@H](C#N)C1 [Compound 25, (1s,3s)-3-(4-methyl-4H-1,2,4-triazol-3-yl)-3-(3-(6-(((1-methylcyclobutyl)amino)methyl)-1-oxo-4-(trifluoromethyl)isoindolin-2-yl)phenyl)cyclobutanecarbonitrile] | 5.4 | 4 | 36 | 22 | 14 | (2.6x) | – | –
15 | CC[C@H]1C[C@@](c2cccc(N3Cc4c(cc(CNC5(C)CCC5)cc4C(F)(F)F)C3=O)c2)(c2nncn2C)C1 [Compound 454, 2-(3-((1r,3s)-3-ethyl-1-(4-methyl-4H-1,2,4-triazol-3-yl)cyclobutyl)phenyl)-6-(((1-methylcyclobutyl)amino)methyl)-4-(trifluoromethyl)isoindolin-1-one] | 11 | 0.85 | 16 | 9.2 | – | – | 6.5 | 2.4
16 | CO[C@H]1C[C@](c2cccc(N3Cc4c(cc([C@H](C)NC5(C)CCC5)cc4C(F)(F)F)C3=O)c2)(c2nncn2C)C1 (single isomer, unassigned) [Compound 185] | 29 | 3.2 | 150 | 97 | 23 | 6.7x | – | –
17 | C=CCOc1cc(N2Cc3c(cc(CNC4(C)CCC4)cc3C(F)(F)F)C2=O)cc([C@]2(c3nncn3C)C[C@@H](OC)C2)c1 [Compound 205, 2-(3-(allyloxy)-5-((1s,3s)-3-methoxy-1-(4-methyl-4H-1,2,4-triazol-3-yl)cyclobutyl)phenyl)-6-(((1-methylcyclobutyl)amino)methyl)-4-(trifluoromethyl)isoindolin-1-one] | 2.8 | 46 | 240 | 130 | 63 | 3.8x | – | –
18 | Cn1cnnc1[C@H](c1cccc(N2Cc3c(cc(CNC4(C)CCC4)cc3C(F)(F)F)C2=O)c1)C1CCC1 (single isomer, unassigned) [Compound 259] | 5.5 | 0.22 | 16 | 1.1 | 16 | 1.0x | – | –
19 | Cc1cnnn1[C@@H](c1cccc(N2Cc3c(cc(CNC4(C)CCC4)cc3C(F)(F)F)C2=O)c1)C1COC1 (single isomer, unassigned) [Compound 135] | 4.9 | 13 | 69 | 63 | 37 | 1.9x | – | –
